One test has as its system Human melanocytes. The test can be described thus: Nitric oxide-induced DNA strand breaks with or without UV (pulsed field gel electrophoresis). Type of test: cell-based. On the procedure:
Human melanocytes were exposed to 160 μM DETA NONOate (Alexis Corporation, Cat #430-014-M005), a reagent which spontaneously produces nitric oxide when exposed to water. Cells were exposed to NO alone, or NO plus increasing doses of UV radiation (50 and 300 J/m^2). Groups of cells were also exposed to deoxyribonucleosides of the invention before, or before and after, exposure to NO or NO+UV radiation; control groups were treated identically except for addition of deoxyribonucleosides.
DNA was extracted from cells and subjected to pulsed field gel electrophoresis to determine the incidence of DNA strand breaks.

Test [1] deals with human fibroblasts. The test can be described thus: UV-induced DNA single strand breaks (nucleoid position, alkaline sucrose gradient) with oxybenzone. It counts as cell-based. On the procedure:
(§1) Confluent human fibroblasts in T25 flasks were washed 3 times with HBSS (Hank's Balanced Salt Solution) and incubated with vehicle or with various concentrations of oxybenzone (OB) for 2 hours. Media was aspirated and cells were covered with a 1 mm layer of HBSS and irradiated from above with UV-B (50 J/m^2). The medium was aspirated and cells were incubated for three hours with 2 mM hydroxyurea. Medium was again aspirated, and cells were trypsinized with 0.25% trypsin/EDTA. Cells were centrifuged at 4° C., resuspended in 50 microliters of HBSS and incubated at room temperature with 200 microliters of 1N NaOH for 15 minutes. DNA damage (single strand breaks) was assessed by alkaline sucrose gradient centrifugation. “Nucleoid position” in the sucrose gradient is proportional to the number of DNA single strand breaks.

Test [2] has as its system human fibroblasts. The test can be described thus: Photodynamic enhancement of DNA damage by UV plus oxybenzone, attenuation by deoxyribonucleosides (nucleoid position). Type of test: cell-based. The settings on record: UV + 2 μM OB, no dNsides. On the procedure: as §1
Confluent human fibroblasts were exposed to 2 micromolar oxybenzone (OB), as in Example 3, prior to exposure to UV-B radiation (50 J/m^2). Different flasks of cells also were exposed to increasing concentrations of deoxyribonucleosides. Cells were processed for determination of nucleoid position in a sucrose density gradient, a measure of DNA single strand breaks.

In test [3] the test system is human fibroblasts. Briefly: Individual versus combined deoxyribonucleosides on photodynamically enhanced UV-induced DNA strand breaks. Type of test: cell-based. The settings on record: UV with 2 μM oxybenzone; individual compounds 20 μM, combination 20 μM each; UV + vehicle .325. On the procedure:
Confluent human fibroblasts were exposed to 2 micromolar oxybenzone (OB), as in Example 3, prior to exposure to UV-B radiation (50 J/m^2). Different flasks of cells also were exposed to increasing concentrations of deoxyribonucleosides. Cells were processed for determination of nucleoid position in a sucrose density gradient, a measure of DNA single strand breaks. […] Individual deoxyribonucleosides were tested at concentrations of 20 μM, and the combination of all four deoxyribonucleosides contained thymidine, deoxycytidine. deoxyadenosine and deoxyguanosine at 20 μM each.

Another test has as its system v-Ha-ras TG.AC mice. The test can be described thus: Individual deoxyribonucleosides versus combination on UV-induced tumorigenesis in v-Ha-ras TG.AC mice. Type of test: in vivo, mouse. The following applies: UV 1.25 kJ/m^2 on days 0, 6, 8 and 11; 4 mg/ml (each) in propylene glycol beginning 30 minutes after irradiation; vehicle 1.8. On the procedure: Thirty v-Ha-ras TG.AC mice aged twelve weeks were shaved and subjected to ultraviolet radiation, 1.25 kJ/m^2 on days 0, 6, 8 and 11, at a dose rate of 12.5 W/m2. Mice were divided into groups of five animals each and treated, beginning 30 minutes after irradiation, with: 1. Vehicle (propylene glycol) 2.

This is an account of results in patent US6465440B2, “Antimutagenic compositions for treatment and prevention of photodamage to skin” (Wellstat Therapeutics Corporation, priority 1997, dated 2002).

Take `[N]=O` [NO, Nitric oxide]: the “DNA Strand Breaks” value in the test on Human melanocytes (NO + UV 50 J/m^2) was 0.21 breaks/105 MDa; in the test on Human melanocytes (NO + UV 300 J/m^2), 0.51 breaks/105 MDa; with Human melanocytes (NO alone (160 μM DETA NONOate)) it was 0.13 breaks/105 MDa.

In the case of `COc1ccc(C(=O)c2ccccc2)c(O)c1` [OB, oxybenzone (benzophenone-3)], the “Nucleoid Position” value stood at 32 mm in the test with human fibroblasts [1] (UV 50 J/m^2 + 2 μM OB, 2 hours preincubation); 4 mm in the test with human fibroblasts [1] (UV 50 J/m^2 + 20 μM OB); 3 mm in the test on human fibroblasts [1] (UV 50 J/m^2 + 200 μM OB); 56 mm in the test with human fibroblasts [2]. For the same compound, in the test with human fibroblasts [1] (UV 50 J/m^2 + 2 micromolar OB), the “Nucleoid position relative to non-irradiated cells” value stood at 10 fold.

In the case of `Nc1ncnc2c1ncn2[C@H]1C[C@H](O)[C@@H](CO)O1` [deoxyadenosine, Deoxyadenosine], the “DNA Strand Breaks” value in the test with human fibroblasts [3] is “.17 Breaks/47 MDa”. Also, in the test with v-Ha-ras TG.AC mice, the “Papillomas/mouse at the end of 8 weeks” value was 0.67 Papillomas/mouse.

On to `Nc1ccn([C@H]2C[C@H](O)[C@@H](CO)O2)c(=O)n1` [deoxycytidine, Deoxycytidine], for which the “DNA Strand Breaks” value in the test with human fibroblasts [3] was “.12 Breaks/47 MDa”. Moreover, the “Papillomas/mouse at the end of 8 weeks” value in the test on v-Ha-ras TG.AC mice was determined as 0.25 Papillomas/mouse.

Turning to `Nc1nc2c(ncn2[C@H]2C[C@H](O)[C@@H](CO)O2)c(=O)[nH]1` [deoxyguanosine, Deoxyguanosine], the “DNA Strand Breaks” value with human fibroblasts [3] is given as “.17 Breaks/47 MDa”. The “Papillomas/mouse at the end of 8 weeks” value in the test with v-Ha-ras TG.AC mice was found to be 1.0 Papillomas/mouse.

`Cc1cn([C@H]2C[C@H](O)[C@@H](CO)O2)c(=O)[nH]c1=O` [thymidine, Thymidine]: in the test with human fibroblasts [3], the “DNA Strand Breaks” value was “.13 Breaks/47 MDa”. Also, the “Papillomas/mouse at the end of 8 weeks” value in the test with v-Ha-ras TG.AC mice is listed as 1.6 Papillomas/mouse.
